Experiments:
[1] = system: U-87 MG; experiment: Antiproliferative activity against human U87MG cells assessed as reduction in cell viability measured after 72 hrs by MTT assay
[2] = system: A549; experiment: Antiproliferative activity against human A549 cells overexpressing LSD1 assessed as reduction in cell viability measured after 72 hrs by MTT assay; conditions: A549, 72 h
[3] = molecular target: Lysine-specific histone demethylase 1A (Homo sapiens, UniProt O60341); experiment: Inhibition of human recombinant LSD1 using fluorogenic ADHP as substrate preincubated for 30 mins followed by substrate addition measured after 10 mins by fluorescence assay
[4] = molecular target: T1, Amine oxidase [flavin-containing] A (Homo sapiens, UniProt P21397); experiment: Inhibition of human recombinant MAO-A expressed in baculovirus infected BTI cells using luciferin derived luminogenic substrate measured after 20 mins by luminescence assay
T1 sequence (P21397 whole entry): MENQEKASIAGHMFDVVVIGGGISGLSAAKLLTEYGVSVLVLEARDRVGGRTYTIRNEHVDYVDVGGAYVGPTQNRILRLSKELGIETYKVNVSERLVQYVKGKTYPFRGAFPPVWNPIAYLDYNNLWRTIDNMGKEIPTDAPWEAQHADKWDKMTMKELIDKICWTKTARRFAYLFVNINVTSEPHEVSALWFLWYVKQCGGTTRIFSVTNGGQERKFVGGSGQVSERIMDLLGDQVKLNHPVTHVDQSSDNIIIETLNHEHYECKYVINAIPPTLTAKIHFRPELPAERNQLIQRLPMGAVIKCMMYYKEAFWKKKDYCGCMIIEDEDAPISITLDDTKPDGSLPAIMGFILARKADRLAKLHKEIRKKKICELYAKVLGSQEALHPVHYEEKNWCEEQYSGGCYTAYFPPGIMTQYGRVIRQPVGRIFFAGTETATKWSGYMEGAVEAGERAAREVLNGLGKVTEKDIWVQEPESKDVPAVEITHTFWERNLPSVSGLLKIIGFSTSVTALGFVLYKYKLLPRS

[5] = molecular target: T2, Amine oxidase [flavin-containing] B (Homo sapiens, UniProt P27338); experiment: Inhibition of human recombinant MAO-B expressed in baculovirus infected BTI cells using luciferin derived luminogenic substrate measured after 20 mins by luminescence assay
T2 sequence (P27338 whole entry): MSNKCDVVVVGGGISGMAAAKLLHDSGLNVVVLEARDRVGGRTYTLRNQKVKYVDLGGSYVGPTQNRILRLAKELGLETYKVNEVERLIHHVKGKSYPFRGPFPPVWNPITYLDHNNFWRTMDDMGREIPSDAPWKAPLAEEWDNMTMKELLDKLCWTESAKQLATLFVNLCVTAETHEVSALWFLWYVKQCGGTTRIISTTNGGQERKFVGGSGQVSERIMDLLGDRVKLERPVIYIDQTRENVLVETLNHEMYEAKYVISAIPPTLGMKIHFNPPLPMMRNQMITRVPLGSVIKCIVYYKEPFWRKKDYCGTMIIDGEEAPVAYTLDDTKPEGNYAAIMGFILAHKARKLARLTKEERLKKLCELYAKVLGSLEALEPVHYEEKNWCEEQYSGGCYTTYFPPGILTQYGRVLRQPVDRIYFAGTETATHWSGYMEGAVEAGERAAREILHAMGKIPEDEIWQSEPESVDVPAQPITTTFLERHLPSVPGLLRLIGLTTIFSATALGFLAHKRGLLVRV

Row | Compound | IC50 [1] [µM] | IC50 [2] [µM] | IC50 [3] [µM] | IC50 [4] [µM] | IC50 [5] [µM]
1 | COc1cc(/C=C/C(=O)Nc2ccc(N)cc2)ccc1O | > 50 | > 50 |  |  | 
2 | COc1cc(/C=C/C(=O)Nc2ccc(NC(=N)N)cc2)ccc1O | > 50 | > 50 |  |  | 
3 | COC(=O)Cc1ccc(NC(=O)/C=C/c2ccc(OC(C)=O)c(OC)c2)cc1 |  |  | > 50 |  | 
4 | O=C(/C=C/c1cccc(C(F)(F)F)c1)Nc1cccc(OCC2CCNCC2)c1 |  |  | > 50 |  | 
5 | COc1cc(/C=C/C(=O)Nc2cccc(COc3ccc(OC4CCNCC4)cc3)c2)ccc1O | > 50 | 28.5 |  |  | 
6 | COc1cc(/C=C/C(=O)CC(=O)/C=C/c2ccc(O)c(OC)c2)ccc1O [CURCUMIN] |  |  | 9.6 |  | 
7 | COc1cc(/C=C/C(=O)Nc2ccc(C(=O)NO)cc2)ccc1O | > 50 | 32.5 |  |  | 
8 | Cc1ccc(-c2cc(/C=C/C(=O)Nc3cccc(OCC4CCNCC4)c3)ccc2O)cc1 |  |  | > 50 |  | 
9 | O=C(/C=C/c1ccc(F)cc1)Nc1cccc(OCC2CCNCC2)c1 |  |  | > 50 |  | 
10 | N#Cc1ccc(/C=C/C(=O)Nc2cccc(OCC3CCNCC3)c2)cc1 |  |  | > 50 |  | 
11 | COc1cc(/C=C/C(=O)Nc2cccc(OCC3CCNCC3)c2)ccc1O | 31 | 24.5 |  |  | 
12 | COc1ccc(/C=C/C(=O)Nc2cccc(OCC3CCNCC3)c2)cc1OC |  |  | > 50 |  | 
13 | O=C(/C=C/c1ccc(O)cc1)Nc1cccc(OCC2CCNCC2)c1 | > 50 | 9.33 |  | > 50 | > 50
14 | COc1cc(/C=C/C(=O)Nc2cccc(OCC3CCNCC3)c2)cc(OC)c1OC |  |  | > 50 |  | 
15 | COc1cc(/C=C/C(=O)Nc2ccccc2COc2ccc(OC3CCNCC3)cc2)ccc1O | 14.2 | 4.42 |  | > 50 | > 50
16 | COc1cc(/C=C/C(=O)Nc2ccc(CC(=O)NN)cc2)ccc1O | 49.3 | 30.3 |  |  | 

From ChEMBL document CHEMBL4311998, “Design, synthesis and biological evaluation of curcumin analogues as novel LSD1 inhibitors” (Bioorg Med Chem Lett, 2019)
